This experiment concerns the target T1, thrombin (Homo sapiens, UniProt P00734).
T1 construct: converts the zymogen prothrombin into the active procoagulant thrombin
Kind of experiment: Thrombin amidolytic assay (chromogenic substrate Chromozym TH). The class given is biochemical. The conditions noted are these: room temperature, pH 7.5, 5 minutes preincubation. The protocol: The compounds of the present invention are first dissolved in a buffer to give solutions containing concentrations such that assay concentrations range from 0-100 μM. In assays for thrombin, prothrombinase and factor Xa, a synthetic chromogenic substrate would be added to a solution containing a test compound and the enzyme of interest and the residual catalytic activity of that enzyme would then be determined spectrophotometrically.
The IC50 of a compound is determined from the substrate turnover. The IC50 is the concentration of test compound giving 50% inhibition of the substrate turnover.
Factor Xa and thrombin assays are performed at room temperature, in 0.02 M Tris HCl buffer, pH 7.5, containing 0.15 M NaCl. The rates of hydrolysis of the paranitroanilide substrate S-2765 (Chromogenix) for factor Xa, and the substrate Chromozym TH (Boehringer Mannheim) for thrombin following preincubation of the enzyme with the test compound for 5 minutes at room temperature are determined using a Softmax 96-well plate reader (Molecular Devices), monitored at 405 nm to measure the time dependent appearance of p-nitroanilide.

Take `N=C(N)NCCC[C@H](NC(=O)Cn1cccc(NS(=O)(=O)Cc2ccccc2)c1=O)C(=O)c1nccs1` [Example 9]: 8 nM corresponded to half-maximal inhibition (IC50).

The values are drawn from patent US6369080B2, “Selective factor Xa inhibitors” (COR Therapeutics, Inc., priority 1996, dated 2002).
